Series [1] can be described thus: Particle characteristics of the prepared formulation by particle size analyzer (Dynamic Light Scattering, DLS). It is filed as physicochemical. As to conditions: mRNA formulation; lipid compound:DMG-PEG:DSPC:Cholesterol=50:1.5:10:38.5; N/P ratio 10; buffer exchanged to PBS. How it is done: (§1) The required amounts of the raw materials were mixed in order to meet the N/P ratio (amine group of lipid/phosphate group of mRNA) of 10 and each compound of formulas A to V:DMG-PEG:DSPC:Cholesterol=50:1.5:10:38.5. Ethanol was added to the ethanol layer so that the molecular total of all raw materials was within 12.5 mM, and the aqueous phase and ethanol phase were mixed maintaining a volume ratio of 3:1. After the mixing, to reduce the total ethanol content, buffer exchange was performed as follows: The mixture solution was concentrated by centrifugation at 4,000 rpm to 1/3 using an Amicon-Ultra tube filter (Merk Millipore, UFC505096 or UFC805024, pore size: 50K, volume: 0.5 mL or 4 mL), then diluted with three times the volume of PBS and centrifuged to concentrate. This process was repeated six times to exchange the buffer.
(§2) The more concrete procedure is as follows: • 1) Two autoclaved tubes were prepared (tubes (A) and (B)). • 2) In tube (A), each compound of formulas A to V, DSPC, cholesterol and DMG-PEG in molar quantities calculated according to the experimental conditions were sequentially added and mixed by vortexing. • 3) In the ethanol phase, when necessary, ethanol was added so that the molecular total of all raw materials was within 12.5 mM. • 4) In tube (B), mRNA and 20 mM sodium acetate buffer (pH 4.6) (=prepared by diluting with 3M sodium acetate buffer to 20 mM and titrating to pH 4.6 using 1M HCl) were mixed. At that time, the ratio was calculated and added so that the aqueous phase was total three times the amount of the ethanol phase. • 5) Mixing of Tube (A) and Tube (B) was performed using a Microfluidics (Ignite, Precision Nanosystem) device. Microfluidics operating conditions were FRR (Flow Rate Ratio) of C:R=3:1 and TRR (Total Flow Rate) of 12 mL/min. • 6) The resulting mixture from step 5) was concentrated by centrifugation at 4,000 rpm to 1/3 using an Amicon-Ultra tube filter (50K), then diluted 3-fold with PBS and concentrated by centrifugation. This process was repeated 6 times for concentration to the desired volume.
(§3) • 1) For the prepared formulation, particle characteristics (i.e., Zeta-average particle size (Z-average), polydispersity index (PDI), and zeta-potential) were confirmed using a particle size analyzer (Dynamic Light Scattering, DLS), and the results are shown in Table 1 below. • 2) For the prepared formulation, mRNA encapsulation efficiency was confirmed through Ribo-green assay, and the results are shown in Table 1 below.

Another series deals with mRNA. Description: mRNA encapsulation efficiency of the prepared formulation by Ribo-green assay. It is filed as physicochemical. As to conditions: lipid compound:DMG-PEG:DSPC:Cholesterol=50:1.5:10:38.5, N/P ratio 10, buffer exchanged to PBS. How it is done: as §1, §2, §3

The structures appear in SMILES notation.

Turning to `CCCCCCCCCCC(CCCCCCCC)COC(=O)CCCCCNC(=O)CCN(C)CCCN(C)CCC(=O)NCCCCCC(=O)OCC(CCCCCCCC)CCCCCCCCCC` (centres unmarked) [Example 7], in series [1], the “PDI (PI)” value amounted to 0.215 ± 0.018, the Z-average is 118.6 ± 2.099 nm and the Zeta-potential was found to be 2.04 ± 0.365 mV. For the same compound, the Encapsulation efficiency with mRNA is on record as over 93.75%.
Take `CCCCCCC(CCCCCC)COC(=O)CCCCCCCNC(=O)CCN(CCN)CCC(=O)NCCCCCCCC(=O)OCC(CCCCCC)CCCCCC` [Example 15]: in series [1], the “PDI (PI)” value was determined as 0.186 ± 0.015, the Z-average was determined as 127.0 ± 0.325 nm and the Zeta-potential is listed as -0.40 ± 0.239 mV. The Encapsulation efficiency in the series with mRNA is over 93.75%.
As for `CCCCCCC(CCCCCC)COC(=O)CCCCCCCNC(=O)CCN(C)CCCN(C)CCC(=O)NCCCCCCCC(=O)OCC(CCCCCC)CCCCCC` [Example 8], in series [1], the “PDI (PI)” value turned out to be 0.188 ± 0.007, the Z-average was determined as 110.3 ± 1.700 nm and the Zeta-potential was 4.83 ± 0.301 mV. Also, in the series on mRNA, the Encapsulation efficiency is over 99.2%.
In the case of `CCCCCCCCC(CCCCCC)COC(=O)CCCCCNC(=O)CCN(CCCN(C)C)CCC(=O)NCCCCCC(=O)OCC(CCCCCC)CCCCCCCC` (centres unmarked) [Example 18], in series [1], the “PDI (PI)” value is 0.199 ± 0.007, the Z-average came to 118.6 ± 0.565 nm and the Zeta-potential was 10.96 ± 1.293 mV. Besides, the Encapsulation efficiency with mRNA is listed as over 93.75%.
Regarding `CCCCCCC(CCCC)COC(=O)CCCCCNC(=O)CCN(C)CCCN(C)CCC(=O)NCCCCCC(=O)OCC(CCCC)CCCCCC` (centres unmarked) [Example 4], in series [1], the “PDI (PI)” value stood at 0.231 ± 0.012, the Z-average turned out to be 147.8 ± 0.979 nm and the Zeta-potential is -7.87 ± 0.754 mV. The Encapsulation efficiency with mRNA is recorded as over 93.75%.
In the case of `CCCCCCCCCCC(CCCCCCCC)COC(=O)CCCCCNC(=O)CCN(CCN)CCC(=O)NCCCCCC(=O)OCC(CCCCCCCC)CCCCCCCCCC` (centres unmarked) [Example 14], in series [1], the “PDI (PI)” value stood at 0.166 ± 0.027, the Z-average stood at 113.8 ± 0.502 nm and the Zeta-potential was -10.39 ± 1.994 mV. Besides, the Encapsulation efficiency with mRNA was over 93.75%.
On to `CCCCC/C=C\C/C=C\CCCCCCCCOC(=O)CCCCCNC(=O)CCN(C)CCCN(C)CCC(=O)NCCCCCC(=O)OCCCCCCCC/C=C\C/C=C\CCCCC` [Example 21], for which, in series [1], the “PDI (PI)” value was 0.350 ± 0.009, the Z-average was 120.0 ± 4.251 nm and the Zeta-potential is 4.43 ± 0.746 mV. Also, in the series on mRNA, the Encapsulation efficiency is listed as over 93.50%.
Taken in the same sequence, the figures for `CCCCCCCCCOC(=O)CCCCCNC(=O)CCN(CCCN(C)C)CCC(=O)NCCCCCC(=O)OCCCCCCCCC` [Example 17] were 0.167 ± 0.009, 127.3 ± 0.955 nm, 17.22 ± 3.314 mV and over 93.75%.
Consider `CCCCCCCCC(CCCCCC)COC(=O)CCCCCNC(=O)CCN(C)CCCN(C)CCC(=O)NCCCCCC(=O)OCC(CCCCCC)CCCCCCCC` (centres unmarked) [Example 10], for which, in series [1], the “PDI (PI)” value is on record as 0.171 ± 0.006, the Z-average stood at 118.2 ± 1.473 nm and the Zeta-potential stood at 6.72 ± 0.073 mV. In addition, the Encapsulation efficiency with mRNA was over 94.1%.
With `CCCCCCCCC(OC(=O)CCCCCNC(=O)CCN(C)CCCN(C)CCC(=O)NCCCCCC(=O)OC(CCCCCCCC)C1CC1)C1CC1` (centres unmarked) [Example 22], in series [1], the “PDI (PI)” value was 0.3042 ± 0.026, the Z-average is 121.0 ± 4.06 nm and the Zeta-potential amounted to 3.56 ± 3.67 mV. Besides, the Encapsulation efficiency in the series with mRNA is recorded as over 93.20%.
Turning to `CCCCCCCCCCCCC(CCCCCCCCCC)COC(=O)CCCCCNC(=O)CCN(CCN)CCC(=O)NCCCCCC(=O)OCC(CCCCCCCCCC)CCCCCCCCCCCC` (centres unmarked) [Example 16], in series [1], the “PDI (PI)” value worked out at 0.128 ± 0.015, the Z-average worked out at 128.9 ± 4.714 nm and the Zeta-potential worked out at 0.50 ± 3.461 mV. In the series on mRNA, the Encapsulation efficiency is listed as over 93.75%.
As for `CCCCCCCCC(CCCCCC)COC(=O)CCCCCNC(=O)CCN(CCC(=O)NCCCCCC(=O)OCC(CCCCCC)CCCCCCCC)CCN1CCOCC1` (centres unmarked) [Example 19], in series [1], the “PDI (PI)” value was 0.150 ± 0.022, the Z-average is on record as 146.7 ± 1.226 nm and the Zeta-potential is recorded as -9.39 ± 0.137 mV. Also, the Encapsulation efficiency in the series with mRNA is over 93.75%.
`CCCCCCC(CCCCCC)COC(=O)CCCCCNC(=O)CCN(C)CCCN(C)CCC(=O)NCCCCCC(=O)OCC(CCCCCC)CCCCCC` [Example 5]: in series [1], the “PDI (PI)” value came out at 0.156 ± 0.009, the Z-average was found to be 137.5 ± 1.364 nm and the Zeta-potential was -6.66 ± 0.365 mV. Moreover, the Encapsulation efficiency in the series with mRNA is recorded as over 96.9%.
For `CCCCOC(=O)CCCCCNC(=O)CCN(C)CCCN(C)CCC(=O)NCCCCCC(=O)OCCCC` [Example 6], in series [1], the “PDI (PI)” value turned out to be 0.190 ± 0.011, the Z-average was 125.9 ± 1.325 nm and the Zeta-potential is on record as -6.02 ± 2.949 mV. Moreover, the Encapsulation efficiency in the series on mRNA is on record as over 87.5%.

The record behind these values is patent EP4613738A1, “LIPID HAVING AMIDE AND ESTER FUNCTIONAL GROUPS, AND METHOD FOR PRODUCING SAME” (Samyang Holdings Corporation, priority 2022, dated 2024).
